# Where two headings read alike, the source gives them in different places. Starred links: 1 amine or outer side, 2 acyl side, 3 side chain; linkers in the order of their positions; H or OH if unused. Positions of bridges follow the written chain, without caps; N, C: chain ends. Non-standard residues stand in square brackets, D forms with d. Residues, ends and D or L forms follow the SMILES beside them. ξ: configuration not given here. Adda = CO[C@@H](Cc1ccccc1)[C@@H](C)/C=C(C)/C=C/[C@H](N[*:1])[C@H](C)C(=O)[*:2]; Trp(2-yl) = O=C([C@H](Cc1c([*:3])[nH]c2ccccc12)N[*:1])[*:2]; dAsp(3S-Me) = C[C@H](C(=O)[*:3])[C@@H](N[*:1])C(=O)[*:2]; ξTrp(2-yl) = O=C(C(Cc1c([*:3])[nH]c2ccccc12)N[*:1])[*:2]; Leu(4R-OH,5-OH) = C[C@](O)(CO)C[C@H](N)C(=O)O; d(γGlu) = O=C(O)[C@@H](CCC(=O)[*:2])N[*:1]; X1 = CC(O)(CO)CC(N[*:1])C(=O)[*:2]; cisHyp = O=C(O)[C@@H]1C[C@H](O)CN1; ξAsp(3ξ-OH) = NC(C(=O)O)C(O)C(=O)O; Hyp = O=C(O)[CH]1C[CH](O)CN1; NMeDha = C=C(NC)C(=O)O
# Columns and labels:
# mAb 9C12.2 = type: binding, mouse; settings: for competitive inhibition of mAb 9C12.2: cELISA, up to 1,000 ng/mL; for recognition by mAb 9C12.2: statement of deposit
# mAb 9G3.2 = type: binding, mouse; settings: for competitive inhibition of mAb 9G3.2: cELISA, up to 1,000 ng/mL; for recognition by mAb 9G3.2: statement of deposit
# [1] = test system: Previously described mAbs to amatoxins; settings: He et al; cited from earlier work
# mAb AMA9G3 = type: binding, mouse; parameters: concentration at which test strips detect: unit not given here; settings: for concentration giving complete inhibition of the signal: either hapten as test line; for CR (cross-reactivity): lateral flow test strips
# [2] = mAb 9C12.2, (IC50 α-AMA)/(IC50 test inhibitor)×100
# [3] = mAb 9C12.2, inhibitor mixed with antibody, PERI-AMA-BSA coated plate
# [4] = mAb 9G3.2, (IC50 α-AMA)/(IC50 test inhibitor)×100
# [5] = mAb 9G3.2, inhibitor mixed with antibody, PERI-AMA-BSA coated plate
# [6] = cross-reactivity with near neighbor compounds
Compound,competitive inhibition of mAb 9C12.2 (mAb 9C12.2),Cross reactivity (mAb 9C12.2; [2]) [%],IC50 (mAb 9C12.2; [3]) [µg/mL],recognition by mAb 9C12.2 (mAb 9C12.2),competitive inhibition of mAb 9G3.2 (mAb 9G3.2),Cross reactivity (mAb 9G3.2; [4]) [%],IC50 (mAb 9G3.2; [5]) [µg/mL],recognition by mAb 9G3.2 (mAb 9G3.2),IC50 of previously described mAbs [1] [µg/mL],concentration giving complete inhibition of the signal (mAb AMA9G3) [ng/mL],detection by test strips (mAb AMA9G3; [6]),Cross reactivity (mAb 9C12.2) [%],IC50 (mAb 9C12.2) [µg/mL],Cross reactivity (mAb 9G3.2) [%],IC50 (mAb 9G3.2) [µg/mL],detection by test strips (mAb AMA9G3),concentration at which test strips detect (mAb AMA9G3; [6]),CR (cross-reactivity) (mAb AMA9G3) [%]
CC[C@H](C)[C@@H]1NC(=O)CNC(=O)[C@@H]2Cc3c([nH]c4cc(O)ccc34)[S+]([O-])C[C@@H](NC(=O)CNC1=O)C(=O)N[C@@H](CC(N)=O)C(=O)N1C[C@H](O)C[C@H]1C(=O)N[C@@H]([C@@H](C)[C@@H](O)CO)C(=O)N2 (stereo in doubt) [α-amanitin],competitively inhibited,100,0.00266 ± 0.00018,recognizes,competitively inhibited,100,0.00157,recognizes,0.066,10,,,,,,,,
N[C@H](C(=O)O)c1cc(=O)[nH]o1 [ibotenic acid],,<0.3,>1,,,<0.3,>1,,,,did not detect,,,,,,,
C=C1C(=O)N[C@H](C)C(=O)N[C@@H](CC(C)C)C(=O)N[C@@H](C(=O)O)[C@H](C)C(=O)N[C@@H](CCCNC(=N)N)C(=O)N[C@@H](/C=C/C(C)=C/[C@H](C)[C@H](Cc2ccccc2)OC)[C@H](C)C(=O)N[C@@H](C(=O)O)CCC(=O)N1C [microcystin-LR] (R[Adda][d(γGlu)][NMeDha][dA]L[dAsp(3S-Me)]-OH; lactam N-7),,,,,,,,,,,,<0.3,>1,<0.3,>1,did not detect,,
NCc1cc(=O)[nH]o1 [muscimol],,<0.3,>1,,,<0.3,>1,,,,did not detect,,,,,,,
C/C=C1/C(=O)N[C@@H](C(=O)O)[C@H](C)C(=O)N[C@@H](CCCNC(=N)N)C(=O)N[C@@H](/C=C/C(C)=C/[C@H](C)[C@H](Cc2ccccc2)OC)[C@H](C)C(=O)N[C@@H](C(=O)O)CCC(=O)N1C [nodularin],,,,,,,,,,,,<0.3,>1,<0.3,>1,did not detect,,
CC1NC(=O)C2CC(O)CN2C(=O)C2CSc3[nH]c4ccccc4c3CC(NC1=O)C(=O)NC(CC(C)(O)CO)C(=O)NC(C(C)C)C(=O)NC(C(O)C(=O)O)C(=O)N2 (stereo not drawn) [phallacidin] (cyclo([ξAsp(3ξ-OH)]C[Hyp]A[ξTrp(2-yl)][X1]V); thioether 2-5; configuration not given here),,<0.3,>1,,,<0.3,>1,,,,,,,,,,200,0.005
"C[C@@H]1NC(=O)[C@H](C[C@@](C)(O)CO)NC(=O)[C@@H]2Cc3c([nH]c4ccccc34)SC[C@H](NC(=O)[C@@H]([C@H](C)O)NC1=O)C(=O)N1C[C@@H](O)C[C@H]1C(=O)N[C@@H](C)C(=O)N2 [phalloidin] (cyclo(A[dT]C[cisHyp]A[Trp(2-yl)][Leu(4R-OH,5-OH)]); thioether 3-6)",,<0.3,>1,,,<0.3,>1,,,,,,,,,,,0.005
β-amanitin,no reduction in signal response,<0.3,>1,recognizes,competitively inhibited,6.5,0.0242 ± 0.0062,recognizes,,,,,,,,,,
γ-amanitin,competitively inhibited,115,0.0023 ± 0.00031,,competitively inhibited,96,0.00163 ± 0.00021,recognizes,,10,,,,,,,,

# — patent publication US11802147B2, “High affinity monoclonal antibodies for detecting amanitins” (priority 2019, dated 2023)
